The target of experiment [1] is Neuronal acetylcholine receptor subunit alpha-7 (Rattus norvegicus, UniProt Q05941). Description: Displacement of [3H]epibatadine from rat alpha7 nAChR expressed in HEK293 cells by scintillation counting analysis. The format is cell-based.
The species entered for the next experiment is Rattus norvegicus. Description: Selectivity ratio of Ki for rat alpha3beta4 nAChR to Ki for rat alpha4beta2 nAChR.
In experiment [2] the target is Neuronal acetylcholine receptor; alpha4/beta2 (Rattus norvegicus, UniProt P09483+P12390). Nature of the experiment: Displacement of [3H]epibatadine from rat alpha4beta2 nAChR expressed in HEK293 cells by scintillation counting analysis. The format is cell-based. A general note: Loss of bound radioactivity is the signal in a displacement assay; it reports binding, not function.
Chain of Neuronal acetylcholine receptor; alpha4/beta2 (P09483 whole entry): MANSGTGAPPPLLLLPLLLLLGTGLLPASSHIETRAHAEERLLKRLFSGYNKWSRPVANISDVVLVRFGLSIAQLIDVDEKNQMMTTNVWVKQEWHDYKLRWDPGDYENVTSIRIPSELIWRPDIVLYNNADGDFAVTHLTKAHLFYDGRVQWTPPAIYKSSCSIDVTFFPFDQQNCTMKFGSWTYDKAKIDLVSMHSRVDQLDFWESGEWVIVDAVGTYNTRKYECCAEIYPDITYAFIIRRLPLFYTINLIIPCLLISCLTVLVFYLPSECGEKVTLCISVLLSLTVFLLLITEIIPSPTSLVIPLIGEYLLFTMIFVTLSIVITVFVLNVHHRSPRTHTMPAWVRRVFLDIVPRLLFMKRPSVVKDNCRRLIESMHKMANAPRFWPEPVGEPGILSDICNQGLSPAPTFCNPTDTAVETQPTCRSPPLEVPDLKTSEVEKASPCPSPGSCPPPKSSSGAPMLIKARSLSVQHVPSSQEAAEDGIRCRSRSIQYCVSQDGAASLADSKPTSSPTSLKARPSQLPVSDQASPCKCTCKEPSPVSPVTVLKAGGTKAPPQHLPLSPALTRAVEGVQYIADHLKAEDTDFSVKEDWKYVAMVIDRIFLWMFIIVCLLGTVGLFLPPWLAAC
Chain of Neuronal acetylcholine receptor; alpha4/beta2 (P12390 whole entry): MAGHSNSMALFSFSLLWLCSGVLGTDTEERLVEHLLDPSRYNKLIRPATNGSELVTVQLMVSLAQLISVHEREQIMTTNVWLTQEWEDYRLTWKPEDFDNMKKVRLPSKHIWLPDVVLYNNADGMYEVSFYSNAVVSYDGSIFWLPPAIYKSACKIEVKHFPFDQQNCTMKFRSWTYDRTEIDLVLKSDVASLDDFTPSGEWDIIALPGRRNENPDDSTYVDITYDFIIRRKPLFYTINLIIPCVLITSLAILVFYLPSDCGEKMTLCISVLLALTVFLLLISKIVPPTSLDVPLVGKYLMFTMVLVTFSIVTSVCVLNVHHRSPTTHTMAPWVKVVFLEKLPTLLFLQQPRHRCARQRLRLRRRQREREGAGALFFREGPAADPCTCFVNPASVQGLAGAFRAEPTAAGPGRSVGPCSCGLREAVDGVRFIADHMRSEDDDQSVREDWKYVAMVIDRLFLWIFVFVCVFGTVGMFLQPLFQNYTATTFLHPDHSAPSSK

Experiment [3] concerns the target Neuronal acetylcholine receptor; alpha3/beta4 (Rattus norvegicus, UniProt P04757+P12392). Description: Displacement of [3H]epibatadine from rat alpha3beta4 nAChR expressed in HEK293 cells by scintillation counting analysis. It is filed as cell-based.
A short description of experiment [4]: Displacement of [3H]epibatadine from rat forebrain nAChR expressed in HEK293 cells by scintillation counting analysis. The format is cell-based.

Chain of Neuronal acetylcholine receptor subunit alpha-7 (Q05941 whole entry): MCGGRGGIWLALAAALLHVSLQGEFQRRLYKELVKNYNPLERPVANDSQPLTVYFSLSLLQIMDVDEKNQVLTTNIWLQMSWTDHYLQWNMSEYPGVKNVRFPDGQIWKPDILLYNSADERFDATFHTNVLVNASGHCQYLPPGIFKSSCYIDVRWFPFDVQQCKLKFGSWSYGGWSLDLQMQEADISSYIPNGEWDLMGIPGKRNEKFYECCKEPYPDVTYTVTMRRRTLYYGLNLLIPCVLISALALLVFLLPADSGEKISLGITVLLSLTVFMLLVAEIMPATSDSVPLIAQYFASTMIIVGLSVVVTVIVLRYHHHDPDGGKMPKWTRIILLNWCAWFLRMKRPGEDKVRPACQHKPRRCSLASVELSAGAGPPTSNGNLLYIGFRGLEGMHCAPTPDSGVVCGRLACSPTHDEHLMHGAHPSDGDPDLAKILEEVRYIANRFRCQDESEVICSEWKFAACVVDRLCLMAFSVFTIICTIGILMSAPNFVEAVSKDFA
Chain of Neuronal acetylcholine receptor; alpha3/beta4 (P04757 whole entry): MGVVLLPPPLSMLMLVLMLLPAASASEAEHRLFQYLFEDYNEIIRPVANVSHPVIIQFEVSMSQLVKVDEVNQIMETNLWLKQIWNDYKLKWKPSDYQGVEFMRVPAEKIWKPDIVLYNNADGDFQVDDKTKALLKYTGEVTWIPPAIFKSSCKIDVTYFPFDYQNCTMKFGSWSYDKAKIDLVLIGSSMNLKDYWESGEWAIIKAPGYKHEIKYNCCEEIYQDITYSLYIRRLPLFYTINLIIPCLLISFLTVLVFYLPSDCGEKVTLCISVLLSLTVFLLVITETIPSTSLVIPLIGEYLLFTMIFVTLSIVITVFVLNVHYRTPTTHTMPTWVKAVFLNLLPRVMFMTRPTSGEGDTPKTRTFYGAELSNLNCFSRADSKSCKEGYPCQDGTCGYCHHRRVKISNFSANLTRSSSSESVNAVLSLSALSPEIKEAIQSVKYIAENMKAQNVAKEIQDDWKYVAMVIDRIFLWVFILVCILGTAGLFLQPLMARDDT
Chain of Neuronal acetylcholine receptor; alpha3/beta4 (P12392 whole entry): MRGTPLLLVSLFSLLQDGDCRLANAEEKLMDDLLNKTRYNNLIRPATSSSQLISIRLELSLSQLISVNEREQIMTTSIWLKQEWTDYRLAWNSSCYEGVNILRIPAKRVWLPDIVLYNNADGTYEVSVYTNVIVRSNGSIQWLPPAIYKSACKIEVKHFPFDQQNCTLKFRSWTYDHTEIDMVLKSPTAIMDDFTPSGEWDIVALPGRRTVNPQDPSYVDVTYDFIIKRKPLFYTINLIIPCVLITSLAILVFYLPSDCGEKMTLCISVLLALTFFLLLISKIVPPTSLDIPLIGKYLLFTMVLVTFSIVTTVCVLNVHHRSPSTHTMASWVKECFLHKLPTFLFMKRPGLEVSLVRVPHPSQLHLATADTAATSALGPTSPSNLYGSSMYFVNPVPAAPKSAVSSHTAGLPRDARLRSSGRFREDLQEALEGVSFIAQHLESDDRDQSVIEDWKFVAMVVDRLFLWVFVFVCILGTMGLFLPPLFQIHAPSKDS

As usually defined, the Ki is a measure of affinity in units of concentration, obtained from inhibition or displacement. Take `CCCCC#Cc1cncc(OC[C@@H]2CCN2)c1`: the Ki in experiment [1] was found to be 1900 nM; in experiment [2], 0.1 nM; in experiment [3], 1700 nM; in experiment [4], 0.29 nM. The Ratio Ki in the experiment listed under Rattus norvegicus was 17000.

`[N-]=[N+]=NCCCCC#Cc1cncc(OC[C@@H]2CCN2)c1`: the Ki in experiment [1] turned out to be 2700 nM; in experiment [2] it was 0.086 nM; in experiment [3], 3400 nM; in experiment [4], 0.36 nM. Also, the Ratio Ki in the experiment listed under Rattus norvegicus was 40000.

`c1ncc(-c2nnn3c2CCCC3)cc1OC[C@@H]1CCN1`: the Ki worked out at 51000 nM in experiment [1], 10 nM in experiment [2], 64000 nM in experiment [3] and 48 nM in experiment [4]. Moreover, in the experiment filed under Rattus norvegicus, the Ratio Ki was 6200.

In the case of `CCCCC#Cc1cncc(OC[C@H]2CCCN2)c1`, the Ki in experiment [1] is 9100 nM; in experiment [2], 0.49 nM; in experiment [3], 12000 nM; in experiment [4] it was 7.7 nM. The Ratio Ki in the experiment listed under Rattus norvegicus was determined as 24000.

Regarding `CCCCC#Cc1cncc(OC[C@H]2CCN2)c1`, the Ki in experiment [1] stood at 13000 nM; in experiment [2], 0.5 nM; in experiment [3] it was 5200 nM; in experiment [4] it was 0.92 nM. Moreover, in the experiment listed under Rattus norvegicus, the Ratio Ki is 10000.

Take `CCCCC#Cc1cncc(OC[C@@H]2CCCN2)c1`: the Ki in experiment [1] turned out to be 35000 nM; in experiment [2], 1.2 nM; in experiment [3], 18000 nM; in experiment [4], 5.8 nM. The Ratio Ki in the experiment filed under Rattus norvegicus was 15000.

`OCCCCc1cn(-c2cncc(OC[C@@H]3CCN3)c2)nn1`: the Ki amounted to 100000 nM in experiment [1], 1.3 nM in experiment [2], 77000 nM in experiment [3] and 8 nM in experiment [4]. Further, in the experiment filed under Rattus norvegicus, the Ratio Ki amounted to 59000.

For the origin of these results see ChEMBL document CHEMBL3286394, “Synthesis and pharmacological characterization of new neuronal nicotinic acetylcholine receptor ligands derived from Sazetidine-A” (Bioorg Med Chem Lett, 2014).
